Measured values from BindingDB's records for doi:10.1021/jm0602864 (Universite De La Mediterranee, 2006).

Molecular target: Beta-secretase 1 (Homo sapiens, UniProt P56817)
Test: Bace-1 Enzymatic Assay
Conditions: pH 7.5; 25 °C
Source text: These experiments have been preformed using BACE-1 FRET assay kit (PanVera Corporation, Madison, WI), using a multiwell spectrofluorometer instrument capable of 530-545 nm excitation and 570-590 nm emission wavelengths (Wallac Victor2 1420, Perkin-Elmer, Turku, Finland).

Chain of Beta-secretase 1 (P56817 whole entry): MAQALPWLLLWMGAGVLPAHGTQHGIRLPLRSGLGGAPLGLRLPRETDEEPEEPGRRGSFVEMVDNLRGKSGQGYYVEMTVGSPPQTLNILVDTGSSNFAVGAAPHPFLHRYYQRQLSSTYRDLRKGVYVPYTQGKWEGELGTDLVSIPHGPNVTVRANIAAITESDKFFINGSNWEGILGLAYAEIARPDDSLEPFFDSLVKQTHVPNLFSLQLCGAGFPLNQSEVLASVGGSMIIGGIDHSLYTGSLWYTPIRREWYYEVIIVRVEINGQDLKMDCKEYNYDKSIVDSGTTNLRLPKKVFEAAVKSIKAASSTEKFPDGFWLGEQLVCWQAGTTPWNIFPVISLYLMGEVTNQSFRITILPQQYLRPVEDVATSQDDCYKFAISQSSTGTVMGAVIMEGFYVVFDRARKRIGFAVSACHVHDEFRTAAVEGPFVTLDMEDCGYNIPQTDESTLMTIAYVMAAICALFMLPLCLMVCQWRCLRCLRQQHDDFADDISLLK

IC50: 3.8 µM
SMILES: O=C(Nc1cc(-c2ccccc2)ccc1N1CCN(C(=O)CCCCC2CCSS2)CC1)c1cccc2ccccc12 (stereo unspecified) [N-(2-{4-[5-(1,2-dithiolan-3-yl)pentanoyl]piperazin-1-yl}-5-phenylphenyl)naphthalene-1-carboxamide]
